Experimental data published in patent US7314620B2, “Methods for diagnosis and treatment of PH domain signal transduction disorders” (New York University, priority 1995, dated 2008).
pKd: −log10 of the molar value. “Also recorded” adds a separate entry of the source.

Experiments:
PLCδ-PH [1] = molecular target: T1, PLCδ-PH (Rattus norvegicus, UniProt P10688); experiment: Spin-column competition assay for 3H-I(145)P3 binding to PLCδ-PH
T1 construct: initiator methionine (N); made in house; host or cells: Escherichia coli (pET11a, T7 system)
T1 sequence (P10688 20-136): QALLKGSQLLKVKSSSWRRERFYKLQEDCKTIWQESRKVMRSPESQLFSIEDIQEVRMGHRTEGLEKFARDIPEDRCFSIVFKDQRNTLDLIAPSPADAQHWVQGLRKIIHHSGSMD
Method: A spin-column based competition assay was employed to determine relative affinities of other inositol polyphosphates for PLCδ-PH. […] The sample (40 μl) was then applied to a Biogel P6 gel filtration spin-column. […] Each curve represents the mean of two or more experiments.
The sample was then applied to a pre-spun 1 ml spin-column containing Biogel P6 desalting medium. The spin-column was then centrifuged for 4 minutes at 900 g. Essentially all of the protein was determined to pass through the column under these conditions, and no significant counts were seen to pass through the column in the absence of protein. After spinning, all of the material that passed through the column was added to scintillation fluid for counting. Counts were normalized to those obtained in the absence of competitor, and plotted as fraction of maximal binding. […]
Values for which a precise number is given represent the mean of at least two experiments.

PLCδ-PH [2] = molecular target: T1, PLCδ-PH; experiment: Equilibrium gel filtration (Hummel and Dreyer) of PH domain binding to lipid vesicles; conditions: lipid-containing DMPC vesicles; overestimates of the real KD; read-out: apparent KD for vesicle binding
Method: (§1) A 150×7.5 mm Superdex 75 column, attached to a Dionex HPLC system, was equilibrated with buffer containing PH domain at around 5 μM (depending upon the experiment). A suspension of vesicles that also contained 5 μM PH domain was then injected. In the absence of interaction between the PH domain and the vesicles, the resulting column profile (detected by absorbance at 280 nm) reflects only the lipid peak. However, if there is significant interaction, a trough is observed at a position corresponding to the elution position of the free PH domain, since the lipids have removed free PH domain from the column buffer. When such a trough was observed, in order to determine a KD for the interaction, a series of higher concentrations of PH domain were injected, all with constant lipid concentration. A plot of trough area against [PH] in the injected sample was linear, becoming positive when excess free protein was present in the injected sample (see FIG. 5B). This line was used to determine the point at which no trough was observed. At this point, [PH]free in the injected sample is equal to [PH] in the column buffer. Since [PH]total as well as [lipid]total in the injected sample are known, KD can be determined, as KD=([PH]free×[lipid]free)/[complex]. [complex]=[PH]total−[PH]free, and [lipid]free=[lipid]total−[complex].
We also utilized the equilibrium gel-filtration approach described by Hummel, J. P., and Dreyer, W. J., Biochim. Biophys. Acta. 63, 530-532, 1962. In this approach, a size exclusion column is equilibrated with a solution of the ligand (5 μM PH domain in this case), and a solution of macromolecule (a vesicle suspension in this case) that also contains 5 μM ligand is then injected. In the absence of interaction between the ligand and macromolecule, a single peak, corresponding to the macromolecule, is observed. […] If an interaction is observed, its KD can be determined as described in Experimental Procedures. […]

Dyn-PH = molecular target: T2, Dyn-PH (Homo sapiens, UniProt Q05193); experiment: as above; conditions: PIP2-containing vesicles
T2 construct: The PH domains from PLC-δ1, and dynamin, as well as the N-terminal PH domain of pleckstrin; made in house; host or cells: Escherichia coli (T7 system)
T2 sequence (Q05193 519-625 limits assumed): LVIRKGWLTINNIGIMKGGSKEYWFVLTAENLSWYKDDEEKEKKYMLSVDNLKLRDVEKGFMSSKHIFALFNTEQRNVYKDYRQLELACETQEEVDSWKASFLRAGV
Method: as §1, with “At this point, [PH]free in the injected sample is equal to [PH] in the column buffer.” left out, “[complex]=[PH]total−[PH]free, and [lipid]free=[lipid]total−[complex].” left out
We also utilized the equilibrium gel-filtration approach described by Hummel, J. P., and Dreyer, W. J., Biochim. […] If an interaction is observed, its KD can be determined as described in Experimental Procedures. […]

SH2 domain of Lck = molecular target: T3, SH2 domain of Lck (Homo sapiens, UniProt P06239); experiment: Equilibrium gel filtration control with SH2 domain; assay type: binding; conditions: low salt; 50 mM MOPS pH 6.8, 100 mM NaCl
T3 construct: Control experiments performed with the SH2 domain of Lck; made in house
T3 sequence (P06239 127-224 limits assumed): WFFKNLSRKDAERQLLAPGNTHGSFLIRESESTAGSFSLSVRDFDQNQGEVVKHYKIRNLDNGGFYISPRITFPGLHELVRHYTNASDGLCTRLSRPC

whole PLC-δ1 = molecular target: T4, whole PLC-δ1 (Homo sapiens, UniProt P51178); conditions: sucrose-loaded PIP2-containing vesicles; Rebecchi et al. 1992; read-out: apparent KD; cited from earlier work
T4 sequence (P51178 1-756): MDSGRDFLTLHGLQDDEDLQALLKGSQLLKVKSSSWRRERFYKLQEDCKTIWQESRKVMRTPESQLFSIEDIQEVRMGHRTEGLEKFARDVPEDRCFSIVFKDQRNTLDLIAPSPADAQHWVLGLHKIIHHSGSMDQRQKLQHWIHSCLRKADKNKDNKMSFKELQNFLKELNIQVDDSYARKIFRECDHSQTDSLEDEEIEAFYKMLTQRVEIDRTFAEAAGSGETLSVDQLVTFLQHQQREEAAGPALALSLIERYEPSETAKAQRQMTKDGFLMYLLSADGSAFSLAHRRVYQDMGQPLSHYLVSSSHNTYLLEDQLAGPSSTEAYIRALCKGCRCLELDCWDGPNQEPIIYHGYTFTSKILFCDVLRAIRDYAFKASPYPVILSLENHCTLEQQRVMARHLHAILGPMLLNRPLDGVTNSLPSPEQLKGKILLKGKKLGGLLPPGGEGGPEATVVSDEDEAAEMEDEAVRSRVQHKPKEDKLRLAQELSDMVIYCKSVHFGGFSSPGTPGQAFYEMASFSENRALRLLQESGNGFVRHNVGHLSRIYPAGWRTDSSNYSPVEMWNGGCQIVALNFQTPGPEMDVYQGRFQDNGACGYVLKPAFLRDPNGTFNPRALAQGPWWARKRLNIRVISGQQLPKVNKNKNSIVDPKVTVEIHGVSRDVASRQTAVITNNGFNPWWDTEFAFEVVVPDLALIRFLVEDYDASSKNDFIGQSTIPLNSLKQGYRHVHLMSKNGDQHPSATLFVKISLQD

[3] = molecular target: T5, N-terminal pleckstrin PH domain (Homo sapiens, UniProt P08567); conditions: PIP2 in detergent; Harlan et al. 1994; cited from earlier work
T5 sequence (P08567 4-101 limits assumed): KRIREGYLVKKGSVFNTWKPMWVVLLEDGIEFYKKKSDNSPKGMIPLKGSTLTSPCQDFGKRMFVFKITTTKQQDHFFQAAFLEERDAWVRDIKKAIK

Substance: Phosphatidylinositol-(4,5)-bisphosphate [PIP2]
- pKd (PLCδ-PH [1]; PIP2: 5% in DMPC vesicles, assuming 50% available, read-out: KD from competition assay): ~6.40
- competition for I(145)P3 binding by lipid vesicles (PLCδ-PH [1]; lipid at 5% in DMPC vesicles or pure DMPC, assuming 50% of lipid on the surface): almost as effective as that seen with unlabelled I(145)P3; also recorded: as effectively as can GPIP2
- binding weaker than I(145)P3 (PLCδ-PH [1]; relative to I(145)P3 binding to PLCδ-PH): two-fold weaker
- pKd (PLCδ-PH [2]): 4.89
- binding to vesicles (Dyn-PH): no detectable binding
- binding to vesicles (SH2 domain of Lck): also binds
- pKd (whole PLC-δ1): ~5.60
- pKd [3]: ~4.52
